Laboratory results reported in patent publication US6716818B2, “Caspase inhibitors and the use thereof” (Cytovia, Inc., priority 1999, dated 2004).
cmk = not defined here

Tests used:
rCaspase 3 = target: T1, rCaspase 3 (Homo sapiens, UniProt P42574); test: fluorometric caspase-3 enzyme assay (Ac-DEVD-AMC substrate); format: biochemical; conditions: 2 ng rCaspase 3, 10 μM Ac-DEVD-AMC, 37° C., 30 minutes
T1 construct: purchased PharMingen, a Becton division company, San Diego, Calif
T1 sequence (P42574 29-175 limits assumed): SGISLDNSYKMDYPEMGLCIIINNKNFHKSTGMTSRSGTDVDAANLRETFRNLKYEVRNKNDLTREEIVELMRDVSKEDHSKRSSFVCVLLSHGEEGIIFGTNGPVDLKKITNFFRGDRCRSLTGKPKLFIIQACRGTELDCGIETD
Description: Enzyme activity was measured using synthetic peptide substrates attached to a fluorogenic leaving group. Cleavage of the synthetic substrate by the enzyme results in a fluorescent signal which is read in a spectrofluorometer or in a fluorometric microtiter plate reader.
12 concentrations of the testing compound ranged from 30 μM to […] were tested in the enzyme assay. The enzyme reaction was conducted in the presence of 2 ng rCaspase 3 (purchased from PharMingen, a Becton division company, San Diego, Calif.), various concentrations of testing compound, 10 μM caspase 3 substrate Ac-DEVD-AMC (SEQ ID NO:3) (purchased from Quality Controlled Biochemicals, Inc. Hopkinton, Mass.) and caspase buffer (20 mM PIPES, 100 mM NaCl, 10 mM DTT, 1 mM EDTA, 0.1% CHAPS and 10% sucrose, pH 7.2) in a total volume of 100 μl. The enzyme reaction was carried out in a 96-well plate and incubated at 37° C. for 30 minutes. The plate was then read with a fluorescence plate reader (EG&G WALLAG 1420-002) using excitation filter at 355 nm/emission filter at 460 nm. The data was analyzed using GraphPrism software.

[1] = system: dopaminergic neurons grafted to hemiparkinsonian rats; conditions: cited from earlier work
[2] = treatment of the embryonic nigral cell suspension

IC50 (rCaspase 3) | Molecule | functional recovery ([1]; hemiparkinsonian rats) | DNA fragmentation and apoptosis in transplants [1, 2] | survival of dopaminergic neurons grafted to hemiparkinsonian rats [1, 2]
0.058 µM | CCOC(=O)NC(C(=O)NC(CC(=O)O)C(=O)CF)C(C)C (stereo not drawn) [Ethoxycarbonyl-Val-Asp-fmk] |  |  | 
0.072 µM | CC(C)C(NC(=O)OCC1CCCCC1)C(=O)NC(CC(=O)O)C(=O)CF (stereo not drawn) [Cyclohexylmethoxycarbonyl-Val-Asp-fmk] |  |  | 
 | Ac-YVAD-cmk (reading uncertain; also: printed as Ac-YVAD-cmk) | substantially improved functional recovery | mitigated DNA fragmentation and reduced apoptosis in transplants | increased survival of dopaminergic neurons
